Measurements: ChEMBL document CHEMBL1129619, “New series of potent, orally bioavailable, non-peptidic cyclic sulfones as HIV-1 protease inhibitors” (J Med Chem, 1996)

How the values were obtained:
[1] = Cytotoxic Concentration needed to produce 50% reduction in the number of viable MT2 cells assayed by metabolism of a tetrazolium dye.; format: cell-based; conditions: human
[2] = molecular target: Human immunodeficiency virus type 1 protease (Human immunodeficiency virus 1, UniProt Q72874); experiment: Concentration needed to inhibit HIV- protease activity by 50%.
MT2 [3] = experiment: Concentration needed to inhibit HIV-1 virus replication in MT2 cells by 90% as determined by XTT assay.; format: functional; conditions: Homo sapiens
MT2 [4] = experiment: Concentration needed to inhibit HIV-1 virus replication in MT2 cells by 50% as determined by XTT assay.; format: functional, cell-based; conditions: Homo sapiens
[5] = Selectivity ratio between EC50 ancd CC50 values of the compound; format: functional
[6] = Selective ratio between EC50 ancd CC50 values calculated; format: functional

| SMILES | CC50 [1] [nM] | IC50 [2] [nM] | EC90 (MT2 [3]) [nM] | EC50 (MT2 [4]) [nM] | SI [5] | SI [6] |
| --- | --- | --- | --- | --- | --- | --- |
| O=S1(=O)[C@H](Cc2ccccc2)[C@H](OCc2cncs2)[C@H](O)[C@@H](O)[C@@H](OCc2cncs2)[C@H]1Cc1ccccc1 | 40000 | 0.3 | 40 | 6.5 | 6150 | – |
| O=S1(=O)[C@H](Cc2ccccc2)[C@H](OCc2ccccc2)[C@H](O)[C@@H](O)[C@@H](OCc2ccccc2)[C@H]1Cc1ccccc1 | 6000 | 0.6 | 70 | 40 | 150 | – |
| Nc1cccc(CO[C@@H]2[C@H](O)[C@@H](O)[C@@H](OCc3cccc(N)c3)[C@@H](Cc3ccccc3)S(=O)(=O)[C@@H]2Cc2ccccc2)c1 | 30000 | 1 | – | 9 | – | 3330 |
